Data from patent US20180319786A1, “INHIBITOR OF THE P2X7 RECEPTOR” (H. Lundbeck A/S, priority 2015, published 2018).

Experiments:
human P2X7 receptors = target: T1, human P2X7 receptors (Homo sapiens, UniProt Q99572); assay: P2X7 FLIPR assay; type: cell-based; settings: Human P2X7 in HEK293 cells, BzATP 8 μM, Ca2+ mobilization
T1 construct: expressed in transfected cells; host or cells: HEK293
T1 sequence (Q99572 1-595): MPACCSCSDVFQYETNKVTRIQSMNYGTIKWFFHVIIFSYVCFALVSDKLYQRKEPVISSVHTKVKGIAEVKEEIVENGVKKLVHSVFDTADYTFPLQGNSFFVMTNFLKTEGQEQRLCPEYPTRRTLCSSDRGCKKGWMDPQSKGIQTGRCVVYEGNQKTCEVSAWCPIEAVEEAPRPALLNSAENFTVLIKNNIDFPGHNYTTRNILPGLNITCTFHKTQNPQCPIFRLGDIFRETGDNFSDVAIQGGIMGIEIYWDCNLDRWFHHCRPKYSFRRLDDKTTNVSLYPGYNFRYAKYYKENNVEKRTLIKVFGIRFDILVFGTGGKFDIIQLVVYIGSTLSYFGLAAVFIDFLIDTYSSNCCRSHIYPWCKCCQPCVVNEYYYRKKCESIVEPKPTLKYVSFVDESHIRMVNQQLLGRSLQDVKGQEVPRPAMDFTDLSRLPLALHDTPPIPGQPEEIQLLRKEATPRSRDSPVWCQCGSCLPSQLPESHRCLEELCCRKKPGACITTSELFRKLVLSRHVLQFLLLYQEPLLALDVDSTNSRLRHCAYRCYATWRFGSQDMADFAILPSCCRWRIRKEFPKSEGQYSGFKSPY
Procedure: HEK293 cells stably expressing either human, mouse, or rat P2X7 receptors were plated in 384-well poly-D-lysine-coated black FLIPR plates (Greiner One, Cat #781946) using 1.5% FBS media 24 hours before the assay. Sucrose buffer, pH 7.4 was used for the human-P2X7 assay (5 mM of potassium chloride, 9.6 mM NaH2PO4.2H2O, 25 mM Hepes, 0.5 mM CaCl2, 5 mM glucose, 280 mM sucrose and 1.0 mM probenecid (Sigma, St. Louis, Mo.)). Hank's balanced salt solution buffer, pH 7.4 was used for the rat-P2X7 assay (1×HBSS buffer supplemented with 20 mM Hepes plus 2.5 mM probenecid (Sigma, St. Louis, Mo.) and 0.05% bovine serum albumin After removing the media, the plates were loaded with 30 μL of Fluo-4 NW (Molecular Probes, F36206), and were incubated at 37° C. for 30 min in a humidified chamber (5% CO2/95% air), and for 30 min at RT. Mobilization of intracellular Ca^+2 in response to different ligands was measured online using the FLIPR Tetra reader. In the assay, baseline fluorescence was measured for 15 seconds, then 15 μL of 4× compounds (40 μM) was added, fluorescence was monitored for 3 min for agonist activity, 15 μL of 4×BzATP (hP2X7 1×8 μM, rP2X7 1×15 μM) was added and after a 30 min incubation at room temperature the fluorescence was read for 3 min for IC50 determination.

CFA inflamed rats = assay: CFA-induced inflammatory hyperalgesia (paw pressure threshold); type: in vivo, rat
Procedure: (§1) Male Sprague Dawley rats (Charles River, Germany) weighing 250-300 g on the day of gabapentin administration were used (n=8-10 per group). The animals were housed in Macrolon III cages (20×14×18 cm or 20×40×18 cm; in groups of 3-5 per cage according to weight) containing wood-chip bedding material (3×1×4 mm) in an air-conditioned building with controlled environmental parameters (relative humidity 55±15%, temperature 20±2° C., and light from 06.00 to 19.00 h). Food and water were available ad libitum. The rats were allowed to habituate to the housing facilities for at least one week prior to being assigned to behavioral experiments whereupon they were randomly distributed across treatment groups. All experiments were performed according to the Ethical Guidelines of the International Association for the Study of Pain and the Danish Committee for Experiments on Animals.
Individual rats received a subcutaneous injection of CFA (50% in saline, 100 μl total volume, Sigma Aldrich) into the plantar surface of the hindpaw. All rats were then immediately returned to their homecage. The day prior to this (pre-CFA baseline response), and then again 24 h post CFA injection (post-CFA baseline response), hindpaw paw pressure thresholds were measured to obtain an index of evoked mechanical hyperalgesia [Ref: Munro, G., et al., Neuropharmacology, 2011. 61(1-2): p. 121-132.1. To do this, the investigator gently restrained the rat prior to the application of progressively increasing mechanical pressure to the mid hindpaw region using an electronic version of the Randall-Selitto device (HTC, U.S.A.) The point at which the rat attempted to make a reflex hindpaw withdrawal which in some instances was followed by vocalization was recorded as the paw pressure threshold (g). […] Thereafter, CFA inflamed rats received oral administration of (S)-N-(2-(4-chlorophenyl)-2-morpholinoethyl)-2-(pyrimidin-2-yl)-4-(trifluoromethyl)thiazole-5-carboxamide or vehicle with the investigator blinded to treatment and the paw pressure threshold measured again 60 minutes later.

SNI rats = assay: SNI model of neuropathic pain (von Frey mechanical allodynia); type: in vivo, rat; settings: for reversal of mechanical hypersensitivity: SNI rats 3-4 weeks post injury
Procedure: as §1
A spared nerve injury (SNI) was performed in rats (body weight 180-220 g at the time of surgery) as described previously [Decosterd, I. and C. J. Woolf, Pain, 2000. 87(2): p. 149-581. Anaesthesia was induced and maintained by 2% isoflurane (Baxter A/S, Alleroed, Denmark), combined with oxygen (30%) and nitrous oxide (68%). Next, the skin of the lateral left thigh was incised and the cranial and caudal parts of the biceps femoris muscle were separated and held apart by a retractor to expose the sciatic nerve and its three terminal branches: the sural, common peroneal and tibial nerves. The tibial and common peroneal nerves were tightly ligated with 4/0 silk and 2-3 mm of the nerve distal to the ligation was removed. Any stretching or contact with the intact sural nerve was avoided. […] The presence of mechanical allodynia was assessed using a series of calibrated von Frey hairs (lower limit=0.06 and upper limit=13.5 g, Stoelting Co, Wood Dale Ill.), which were applied to the lateral aspect of the plantar surface of the hindpaw with increasing force until an individual filament used just started to bend. […]

CCI animals = assay: Chronic constrictive injury (CCI) model of neuropathic pain (von Frey PWT); type: in vivo, rat; settings: 100 mg/kg, PWT 120 minutes following administration, p<0.05
Procedure: Male Sprague Dawley rats (Harlan) were used in the study. Upon receipt, rats were group housed with 2-3 per cage in standard cages. Rats were allowed to acclimate for up to 1 week prior to surgery. All rats were examined and weighed prior to initiation of the study to assure adequate health and suitability. During the course of the study, 12/12 light/dark cycles were maintained. The room temperature was maintained between 20° C. and 23° C. with a relative humidity maintained around 50%. Chow and water were provided ad libitum for the duration of the study. All testing was performed during the animals' light cycle phase. Rats were single housed after surgery.
This surgery was performed according to Bennett and Xie (1988). […] Each rat was monitored until awake and moving freely around the recovery chamber. […]
Paw withdrawal from a mechanical stimulus was measured by applying von Frey filaments of ascending bending force to the plantar surface of the hind paws (ipsilateral and contralateral). Baseline and post-treatment withdrawal threshold values for non-noxious mechanical sensitivity were evaluated using von Frey filaments (Semmes-Weinstein filaments, Stoelting, Wood Dale, Ill., USA) of varying stiffness (0.4, 0.7, 1.2, 2.0, 3.6, 5.5, 8.5, 10, 15, 26 g). […]
Data were analyzed by Analysis of variance (ANOVA), followed by post-hoc comparisons when appropriate. […]

For O=C(NCC(c1ccc(Cl)cc1)N1CCOCC1)c1sc(-c2ncccn2)nc1C(F)(F)F (racemic) [Compound (III), (±)-N-(2-(4-chlorophenyl)-2-morpholinoethyl)-2-(pyrimidin-2-yl)-4-(trifluoromethyl)thiazole-5-carboxamide], the IC50 (human P2X7 receptors) was 32 ± 13 nM.
O=C(NC[C@H](c1ccc(Cl)cc1)N1CCOCC1)c1sc(-c2ncccn2)nc1C(F)(F)F [Compound (I), (S)-N-(2-(4-chlorophenyl)-2-morpholinoethyl)-2-(pyrimidin-2-yl)-4-(trifluoromethyl)thiazole-5-carboxamide] was tested, and the IC50 (human P2X7 receptors) was 12 ± 10 nM, the “reversal of mechanical hyperalgesia” value (CFA inflamed rats; 30 mg/kg dose, oral, paw pressure threshold 60 minutes later, 24 h post CFA) was 62 % reversal and the “effect on mechanical hyperalgesia” value (CFA inflamed rats; oral, F(4.49)=30.692, P<0.001) was “significantly reversed”. For the same molecule, the “reversal of mechanical hypersensitivity” value (SNI rats; 30 and 100 mg/kg tested, dose of this value not stated) was 108 % reversal, the “effect on mechanical hypersensitivity” value (SNI rats; 30 and 100 mg/kg, F(3.47)=12.522, P<0.001) was “dose dependently reversed” and the “PWT compared to vehicle treatment” value (CCI animals) was “significantly increased”.
O=C(NC[C@@H](c1ccc(Cl)cc1)N1CCOCC1)c1sc(-c2ncccn2)nc1C(F)(F)F [Compound (II), (R)-N-(2-(4-chlorophenyl)-2-morpholinoethyl)-2-(pyrimidin-2-yl)-4-(trifluoromethyl)thiazole-5-carboxamide] was tested, and the IC50 (human P2X7 receptors) was 89 ± 13 nM.
In the case of O=C(O)Cc1ccccc1Nc1c(Cl)cccc1Cl [diclofenac, reference compound], the “reversal of mechanical hyperalgesia” value (CFA inflamed rats; NSAID comparator, dose not given) is reported as 84 % reversal.
In the case of NCC1(CC(=O)O)CCCCC1 [gabapentin, reference compound], the “reversal of mechanical hypersensitivity” value (SNI rats; 100 mg/kg dose) is reported as 132 % reversal and the “PWT compared to vehicle treatment” value (CCI animals) is reported as “significantly increased”.
